Assay results: PubChem BioAssay (NCI)
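Grown in 96-well plates, cells were treated for 48 hours with each compound at five concentrations. Insufficient inhibition: endpoint recorded as highest concentration tested. TGI: total growth inhibition.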

What follows are molecules tested on OVCAR-8 ovarian (assay: inhibition of tumour cell growth, NCI panel, 48 h).
Cc1ncc(CSc2ccccc2N)c(CO)c1O gave a TGI of over 100 µM.
For COC(=O)CCC1(C)C2CCC1/C(=N/O)C2 (centres undefined), the TGI was over 100 µM.
Work on O=C1/C(=C\c2cccc(Oc3ccccc3)c2)S(=O)(=O)C(c2ccccc2)N1c1cc(Cl)ccc1Cl (centres undefined) yielded a TGI of 32.7 µM.
In the case of CCc1nc(N)c2nc(-c3ccc(C#N)cc3)oc2n1, the TGI is reported as over 100 µM.
For S=C(NCCc1ccccn1)c1nc[nH]c1C(=S)NCCc1ccccn1, the TGI was 82.4 µM.

Each molecule was assayed on NCI-H23 lung (assay: inhibition of tumour cell growth, NCI panel, 48 h).
Cc1ncc(CSc2ccccc2N)c(CO)c1O was tested, and the TGI was over 100 µM.
COC(=O)CCC1(C)C2CCC1/C(=N/O)C2 (centres undefined) showed a TGI of over 100 µM.
O=C1/C(=C\c2cccc(Oc3ccccc3)c2)S(=O)(=O)C(c2ccccc2)N1c1cc(Cl)ccc1Cl (centres undefined) gave a TGI of 44.3 µM.
CCc1nc(N)c2nc(-c3ccc(C#N)cc3)oc2n1 gave a TGI of over 100 µM.
Molecule S=C(NCCc1ccccn1)c1nc[nH]c1C(=S)NCCc1ccccn1 has a TGI of over 100 µM.

The molecules below were run on CCRF-CEM leukemia (assay: inhibition of tumour cell growth, NCI panel, 48 h).
Work on COC(=O)CCC1(C)C2CCC1/C(=N/O)C2 (centres undefined) yielded a TGI of over 100 µM.
With O=C1/C(=C\c2cccc(Oc3ccccc3)c2)S(=O)(=O)C(c2ccccc2)N1c1cc(Cl)ccc1Cl (centres undefined) the TGI was 40.7 µM.
Molecule CCc1nc(N)c2nc(-c3ccc(C#N)cc3)oc2n1 has a TGI of over 100 µM.
S=C(NCCc1ccccn1)c1nc[nH]c1C(=S)NCCc1ccccn1 gave a TGI of 81.1 µM.

These molecules were tested on CAKI-1 renal (assay: inhibition of tumour cell growth, NCI panel, 48 h).
With Cc1ncc(CSc2ccccc2N)c(CO)c1O the TGI was over 100 µM.
Molecule COC(=O)CCC1(C)C2CCC1/C(=N/O)C2 (centres undefined) has a TGI of over 100 µM.
With O=C1/C(=C\c2cccc(Oc3ccccc3)c2)S(=O)(=O)C(c2ccccc2)N1c1cc(Cl)ccc1Cl (centres undefined) the TGI was over 100 µM.
CCc1nc(N)c2nc(-c3ccc(C#N)cc3)oc2n1 gave a TGI of over 100 µM.
In the case of S=C(NCCc1ccccn1)c1nc[nH]c1C(=S)NCCc1ccccn1, the TGI is reported as over 100 µM.

What follows are molecules tested on SK-MEL-5 melanoma (assay: inhibition of tumour cell growth, NCI panel, 48 h).
With Cc1ncc(CSc2ccccc2N)c(CO)c1O the TGI was over 100 µM.
COC(=O)CCC1(C)C2CCC1/C(=N/O)C2 (centres undefined) was tested, and the TGI was over 100 µM.
Molecule O=C1/C(=C\c2cccc(Oc3ccccc3)c2)S(=O)(=O)C(c2ccccc2)N1c1cc(Cl)ccc1Cl (centres undefined) has a TGI of 33.3 µM.
Molecule CCc1nc(N)c2nc(-c3ccc(C#N)cc3)oc2n1 has a TGI of over 100 µM.
S=C(NCCc1ccccn1)c1nc[nH]c1C(=S)NCCc1ccccn1 showed a TGI of over 100 µM.

What follows are molecules tested on COLO 205 colon (assay: inhibition of tumour cell growth, NCI panel, 48 h).
Cc1ncc(CSc2ccccc2N)c(CO)c1O showed a TGI of over 100 µM.
For COC(=O)CCC1(C)C2CCC1/C(=N/O)C2 (centres undefined), the TGI was over 100 µM.
O=C1/C(=C\c2cccc(Oc3ccccc3)c2)S(=O)(=O)C(c2ccccc2)N1c1cc(Cl)ccc1Cl (centres undefined) showed a TGI of 48.4 µM.
In the case of CCc1nc(N)c2nc(-c3ccc(C#N)cc3)oc2n1, the TGI is reported as over 100 µM.
Work on S=C(NCCc1ccccn1)c1nc[nH]c1C(=S)NCCc1ccccn1 yielded a TGI of over 100 µM.

These molecules were tested on IGROV1 ovarian (assay: inhibition of tumour cell growth, NCI panel, 48 h).
With Cc1ncc(CSc2ccccc2N)c(CO)c1O the TGI was over 100 µM.
In the case of COC(=O)CCC1(C)C2CCC1/C(=N/O)C2 (centres undefined), the TGI is reported as over 100 µM.
In the case of O=C1/C(=C\c2cccc(Oc3ccccc3)c2)S(=O)(=O)C(c2ccccc2)N1c1cc(Cl)ccc1Cl (centres undefined), the TGI is reported as 56.2 µM.
CCc1nc(N)c2nc(-c3ccc(C#N)cc3)oc2n1 was tested, and the TGI was over 100 µM.
S=C(NCCc1ccccn1)c1nc[nH]c1C(=S)NCCc1ccccn1 showed a TGI of over 100 µM.

Each molecule was assayed on SN12C renal (assay: inhibition of tumour cell growth, NCI panel, 48 h).
Cc1ncc(CSc2ccccc2N)c(CO)c1O showed a TGI of over 100 µM.
COC(=O)CCC1(C)C2CCC1/C(=N/O)C2 (centres undefined) showed a TGI of over 100 µM.
O=C1/C(=C\c2cccc(Oc3ccccc3)c2)S(=O)(=O)C(c2ccccc2)N1c1cc(Cl)ccc1Cl (centres undefined) was tested, and the TGI was 35 µM.
CCc1nc(N)c2nc(-c3ccc(C#N)cc3)oc2n1 was tested, and the TGI was over 100 µM.
With S=C(NCCc1ccccn1)c1nc[nH]c1C(=S)NCCc1ccccn1 the TGI was over 100 µM.

These molecules were tested on 786-0 renal (assay: inhibition of tumour cell growth, NCI panel, 48 h).
For Cc1ncc(CSc2ccccc2N)c(CO)c1O, the TGI was over 100 µM.
Molecule COC(=O)CCC1(C)C2CCC1/C(=N/O)C2 (centres undefined) has a TGI of over 100 µM.
O=C1/C(=C\c2cccc(Oc3ccccc3)c2)S(=O)(=O)C(c2ccccc2)N1c1cc(Cl)ccc1Cl (centres undefined) was tested, and the TGI was 37.4 µM.
In the case of CCc1nc(N)c2nc(-c3ccc(C#N)cc3)oc2n1, the TGI is reported as over 100 µM.
For S=C(NCCc1ccccn1)c1nc[nH]c1C(=S)NCCc1ccccn1, the TGI was over 100 µM.

The molecules below were run on SNB-75 CNS (assay: inhibition of tumour cell growth, NCI panel, 48 h).
In the case of Cc1ncc(CSc2ccccc2N)c(CO)c1O, the TGI is reported as over 100 µM.
For COC(=O)CCC1(C)C2CCC1/C(=N/O)C2 (centres undefined), the TGI was over 100 µM.
With O=C1/C(=C\c2cccc(Oc3ccccc3)c2)S(=O)(=O)C(c2ccccc2)N1c1cc(Cl)ccc1Cl (centres undefined) the TGI was 69.6 µM.
With CCc1nc(N)c2nc(-c3ccc(C#N)cc3)oc2n1 the TGI was over 100 µM.
S=C(NCCc1ccccn1)c1nc[nH]c1C(=S)NCCc1ccccn1 gave a TGI of 83.3 µM.

These molecules were tested on UO-31 renal (assay: inhibition of tumour cell growth, NCI panel, 48 h).
With COC(=O)CCC1(C)C2CCC1/C(=N/O)C2 (centres undefined) the TGI was over 100 µM.
For O=C1/C(=C\c2cccc(Oc3ccccc3)c2)S(=O)(=O)C(c2ccccc2)N1c1cc(Cl)ccc1Cl (centres undefined), the TGI was 39.6 µM.
For CCc1nc(N)c2nc(-c3ccc(C#N)cc3)oc2n1, the TGI was over 100 µM.
Work on S=C(NCCc1ccccn1)c1nc[nH]c1C(=S)NCCc1ccccn1 yielded a TGI of over 100 µM.

What follows are molecules tested on HCT-15 colon (assay: inhibition of tumour cell growth, NCI panel, 48 h).
In the case of Cc1ncc(CSc2ccccc2N)c(CO)c1O, the TGI is reported as over 100 µM.
Work on COC(=O)CCC1(C)C2CCC1/C(=N/O)C2 (centres undefined) yielded a TGI of over 100 µM.
O=C1/C(=C\c2cccc(Oc3ccccc3)c2)S(=O)(=O)C(c2ccccc2)N1c1cc(Cl)ccc1Cl (centres undefined) showed a TGI of 74.6 µM.
CCc1nc(N)c2nc(-c3ccc(C#N)cc3)oc2n1 gave a TGI of over 100 µM.
In the case of S=C(NCCc1ccccn1)c1nc[nH]c1C(=S)NCCc1ccccn1, the TGI is reported as over 100 µM.

The molecules below were run on EKVX NSCLC (assay: inhibition of tumour cell growth, NCI panel, 48 h).
In the case of Cc1ncc(CSc2ccccc2N)c(CO)c1O, the TGI is reported as over 100 µM.
COC(=O)CCC1(C)C2CCC1/C(=N/O)C2 (centres undefined) was tested, and the TGI was over 100 µM.
O=C1/C(=C\c2cccc(Oc3ccccc3)c2)S(=O)(=O)C(c2ccccc2)N1c1cc(Cl)ccc1Cl (centres undefined) gave a TGI of over 100 µM.
Molecule CCc1nc(N)c2nc(-c3ccc(C#N)cc3)oc2n1 has a TGI of over 100 µM.
Work on S=C(NCCc1ccccn1)c1nc[nH]c1C(=S)NCCc1ccccn1 yielded a TGI of over 100 µM.

These molecules were tested on SF-539 CNS (assay: inhibition of tumour cell growth, NCI panel, 48 h).
Work on Cc1ncc(CSc2ccccc2N)c(CO)c1O yielded a TGI of over 100 µM.
Molecule O=C1/C(=C\c2cccc(Oc3ccccc3)c2)S(=O)(=O)C(c2ccccc2)N1c1cc(Cl)ccc1Cl (centres undefined) has a TGI of over 100 µM.
Work on CCc1nc(N)c2nc(-c3ccc(C#N)cc3)oc2n1 yielded a TGI of over 100 µM.

The molecules below were run on SF-268 CNS (assay: inhibition of tumour cell growth, NCI panel, 48 h).
Cc1ncc(CSc2ccccc2N)c(CO)c1O showed a TGI of over 100 µM.
COC(=O)CCC1(C)C2CCC1/C(=N/O)C2 (centres undefined) gave a TGI of over 100 µM.
For O=C1/C(=C\c2cccc(Oc3ccccc3)c2)S(=O)(=O)C(c2ccccc2)N1c1cc(Cl)ccc1Cl (centres undefined), the TGI was 42.3 µM.
